Assay results published in patent publication US7572923B2, “Indirubin derivatives having anticancer property against human cancer cell line” (Anygen Co., Ltd., priority 2004, dated 2009).

Key:
RK3E-ras solid tumor [1] = assay: Histological appearance of tumor lesion, H&E stain; format: in vivo, Sprague Dawley rat; settings: rat tumor tissue
Procedure: (§1) 1×10^7 of RK3E-ras cells is injected to Sprague Dawley rat to induce solid tumor for 5 days and experimental groups of animals are employed by size and volume of tumor in these animals. 100 mM of indirubin derivative is injected to experimental group of animals 5 times in every other day.
To observe histological appearance of tumor lesion after indirubin derivatives 011, 012 and 030 treatment, tumor tissue is immobilized in para-formaldehyde solution and is treated with paraffin. Then, H&E stain is carried out. […] From this experiment, indirubin derivatives of the present invention induce apoptosis of tumor, which results in the suppression of tumor formation in tissue level. FIG. 8 is photography showing the appearance of tumor lesion after treating indirubin derivatives 011, 012 and 030 of present invention.

RK3E-Ras cells [2] = assay: Annexin-V-FLUOS/propidium iodide double staining assay for apoptosis; format: cell-based, rat; settings: 1 μM, 24 hours
Procedure: Annexin-V-FLUOS/propidium iodide double staining assay is a sensitive method for measuring apoptosis in cell level by detecting exposed phosphatidyl serine in apoptotic cell membrane.
RK3E-Ras cell is seeding in 6×10^5 level on cover side. Indirubin derivatives 011, 012 and 030 are treated in 1 μM concentration for 24 hours. As a control, cells without treating any compound are employed. After 24 hours, cells are annexin-V-FLUOS/propidium iodide double stained using annexin-V-FLUOS staining kit. […] It is confirmed that apoptosis of cells treated with indirubin derivatives 011, 012 and 030 is processed.

[3] = tested on: human leukemia cell line (HL-60); assay: Inhibition of cancer cell line proliferation, HL-60; format: cell-based; settings: HL-60, 96 h, HL60, 3˜4 days incubation, absorbance at 515 nm
Procedure: (§2) For measuring the proliferation inhibition by indirubin compound, the method disclosed in K. Likhitwitayawuid et al. Journal. Nat. Prod. […] Followings are simple description of this method. The cancer cell line is diluted into 5×10^4 cfu/ml. Then, various concentrations of test compounds are added to 96 well microtiter plate containing diluted cell line. After incubating test plate for 3˜4 days at 37° C., the test plate is dried and Tris-base is added. Then, using ELISA plate detector, the absorbance at 515 nm is measured. IC50 is measured by non-linear regression method.

[4] = tested on: leukemia cell line (HL-60); assay: Differentiation inducing effect, NBT reduction method; format: cell-based, human; settings: for % of Differentiation: 3 days
Procedure: For measuring the differentiation inducing effect to acute bone merrow leukemia cell line (HL-60) by indirubin AGM compound, NBT (nitroblue tetrazolium) reduction reaction method is employed. The leukemia cell line is diluted into 2×10^5 cfu/ml. […] Incubated cells are washed with phosphate buffered saline (PBS). Then, they are further incubated in PBS solution containing 0.1% NBT and 200 ng/ml of PMA (phorbol 12-myristate 13-acetate) for 30 minutes at 37° C. Incubated cells are centrifuged and collected cells are washed with PBS solution. Using cell number counter, differentiated cells forming nitroblue formazan among total cells are counted.

human cancer cell line = assay: Inhibition of cancer cell line proliferation, overall conclusion; format: cell-based; settings: conclusion from Table 2
Procedure: as §2

[5] = tested on: human colon cancer cell line (Col2); assay: Inhibition of cancer cell line proliferation, Col2; format: cell-based; settings: 96 h, 3˜4 days incubation, absorbance at 515 nm
Procedure: as §2

[6] = tested on: human cell line (HT 1080); assay: Inhibition of cancer cell line proliferation, HT 1080; format: cell-based; settings: HT-1080, 96 h, read-out: IC50 HT108
Procedure: as §2

RK3E-ras solid tumor [7] = assay: Tumor suppression in RK3E-ras tumor induced rats; format: in vivo; settings: Sprague Dawley rat; 100 mM injected 5 times in every other day
Procedure: RK3E cell is one of rat kidney cell and it is immortalized by EA1 oncogene. […] Inventors prepares stable RK3E-k-ras cell line by infection of retroviral expression vector to express mutant k-ras of oncogene. Prepared cell line is intramuscularly infected to Sprague Dawley rat to induce tumor. […] Tumor suppression effect by indirubin derivatives 011, 012 and 030 is measured through tumor induced rats.
as §1
Tumor is measured by vernier caliper and the volume of tumor is calculated by Carlsso calculation method {V=1/2(a.b^2), a: long axis, b: short axis}.

[8] = tested on: human stomach cancer cell line (SNU-638); assay: Inhibition of cancer cell line proliferation, SNU-638; format: cell-based; settings: 96 h, 3˜4 days incubation, absorbance at 515 nm
Procedure: as §2

RK3E-Ras cells [9] = assay: Cell viability by MTT assay; format: cell-based, rat; settings: 1, 10, 20, 40 μM, 6, 12, 24, 48 hours
Procedure: To measure the influence to cell viability by indirubin derivative, RK3E-Ras cell, 1×10^5/well is seeding on 24 well plate. After incubation of cells for 12˜24 hours, indirubin derivative 011 in various concentration (1 μM, 10 μM, 20 μM, 40 μM) are treated for 6, 12, 24, 48 hours respectively. As control, cells without treating any compound are employed. […] FIG. 1 show the decline of cell viability after treatment of indirubin derivative 011.
According to the same condition in Example 3, other indirubin derivative 012, 030 are treated to measure the influence to cell viability.

[10] = tested on: human lung cancer cell line (A549); assay: Inhibition of cancer cell line proliferation, A549; format: cell-based; settings: 96 h, 3˜4 days incubation, absorbance at 515 nm
Procedure: as §2

[11] = tested on: human leukemia cell line (HL-60); assay: Differentiation with low concentration 1,25-(OH)2D3 or ATRA, NBT reduction method; format: cell-based
Procedure: For measuring the differentiation inducing effect to acute bone merrow leukemia cell line (HL-60) by indirubin AGM compound, NBT (nitroblue tetrazolium) reduction reaction method is employed. The leukemia cell line is diluted into 2×10^5 cfu/ml. After treating 20 μM and 1 μM concentrations of test compounds, test plate is incubated for 3 days at 37° C. in 5% CO2 incubator. Incubated cells are washed with phosphate buffered saline (PBS). Then, they are further incubated in PBS solution containing 0.1% NBT and 200 ng/ml of PMA (phorbol 12-myristate 13-acetate) for 30 minutes at 37° C. Incubated cells are centrifuged and collected cells are washed with PBS solution. Using cell number counter, differentiated cells forming nitroblue formazan among total cells are counted.
Next, we test if AGM compound of present invention can synergically induce the differentiation of acute bone merrow leukemia cell line when it is treated with low concentration of 1,25-dihydroxyvitamin D3[1,25-(OH)2D3] or all-trans retinoic acid (ATRA) known as differentiation inducing agent. […] […] As a positive control, conventional differentiation inducing agent is used.

[12] = tested on: human abdominal cavity cancer cell line (HT 1080); assay: Inhibition of cancer cell line proliferation, HT 1080; format: cell-based; settings: HT-1080, 96 h, HT108, 3˜4 days incubation, absorbance at 515 nm
Procedure: as §2

[13] = 1 μM compound with 5 nM of 1,25-(OH)2D3
[14] = 1 μM compound with 50 nM of ATRA

IC50 [3] [µM] | IC50 [5] [µM] | IC50 [6] [µM] | IC50 [8] [µM] | IC50 [10] [µM] | SMILES | % of Differentiation ([4]; 1 μM compound) [%] | inhibitor against proliferation of human cancer cell line (human cancer cell line) | % of Differentiation, 1,25-(OH)2D3 [11, 13] [%] | % of Differentiation, all-trans RA [11, 14] [%] | % of Differentiation ([4]; 20 μM compound) [%] | other results
4.81 | 16.8 | – | 6.22 | 12.1 | O=C1Nc2ccc(Cl)cc2C1=C1Nc2ccccc2C1=NO [AGM014, 5′-chloro-1H,1′H-[2,3′] biindolylidene-3,2′-dione 3-oxime] | 40.97 ± 1.19 | effective inhibitor | 21.72 ± 1.22 | 72.40 ± 3.05 | – | IC50 [12]: 10.8 µM
69.3 | 44.2 | – | 12.1 | 23.2 | O=C1Nc2ccc([N+](=O)[O-])cc2C1=C1Nc2ccc(Br)cc2C1=NO [AGM023, 5-bromo-5′-nitro-1H,1′H-[2,3′] biindolylidene-3,2′-dione 3-oxime] | – | effective inhibitor | – | – | – | % of Differentiation ([4]; 0.2 μM compound): 18.38 ± 0.27%; IC50 [12]: 4.41 µM; cytotoxicity [11]: some cytotoxicity; induction of differentiation with conventional differentiation inducing agent ([11]; 0.2 μM): high induction of differentiation; % of Differentiation, 1,25-(OH)2D3 ([11]; 0.2 μM compound with 5 nM of 1,25-(OH)2D3): 89.76 ± 0.88%; % of Differentiation, all-trans RA ([11]; 0.2 μM compound with 50 nM of ATRA): 90.85 ± 0.36%
> 100 | > 100 | > 100 | > 100 | > 100 | O=C1Nc2ccc(Cl)cc2C1=C1Nc2ccccc2C1=O [AGM025, 5′-chloro-1H,1′H-[2,3′] biindolylidene-3,2′-dione] | 26.18 ± 0.59 | – | 49.41 ± 0.08 | 48.39 ± 1.48 | 14.40 ± 0.82 | –
> 100 | > 100 | > 100 | > 100 | > 100 | O=C1Nc2ccc(I)cc2C1=C1Nc2ccccc2C1=O [AGM026, 5′-iodo-1H,1′H-[2,3′] biindolylidene-3,2′-dione] | 29.84 ± 1.12 | – | 44.43 ± 0.09 | 60.33 ± 0.51 | 22.23 ± 0.60 | –
> 100 | > 100 | > 100 | > 100 | > 100 | Cc1cc(C)c2c(c1)C(=C1Nc3ccccc3C1=O)C(=O)N2 [AGM027, 5′,7′-dimethyl-1H,1′H-[2,3′] biindolylidene-3,2′-dione] | 9.45 ± 0.92 | – | 21.74 ± 1.90 | 43.19 ± 1.73 | 4.75 ± 0.41 | –
> 100 | > 100 | > 100 | > 100 | > 100 | Cc1cc(Cl)cc2c1NC(=O)C2=C1Nc2ccccc2C1=O [AGM028, 5′-chloro-7′-methyl-1H,1′H-[2,3′] biindolylidene-3,2′-dione] | 8.85 ± 2.20 | – | 35.22 ± 0.55 | 55.57 ± 1.11 | 0.70 ± 0.16 | –
59.3 | 31.2 | 5.41 | 21.1 | 33.2 | Nc1ccc2c(c1)C(=C1Nc3ccccc3C1=O)C(=O)N2 [AGM029, 5′-amino-1H,1′H-[2,3′] biindolylidene-3,2′-dione] | 45.05 ± 0.59 | effective inhibitor | 79.03 ± 0.55 | 78.81 ± 0.77 | – | induction of differentiation ([4]; at 20 μM concentration): excellently induces the differentiation
– | – | – | – | – | CC(C)(C)C(=O)Nc1ccc2c(c1)C(=C1Nc3ccccc3C1=NO)C(=O)N2 [AGM030, 5-NH-trimethylacetyl-indirubin-3-oxime] | – | – | – | – | – | histological appearance of tumor lesion (RK3E-ras solid tumor [1]): necrosis or calcification of tumor is observed; annexin-V green fluorescence staining versus control (RK3E-Ras cells [2]): far more stained by green fluorescence than cells of control group; size and volume of tumor (RK3E-ras solid tumor [7]): decrease; cell viability according to increase of compound concentration (RK3E-Ras cells [9]): rapid decline of cell viability

SMILES | IC50 [3] [µM] | IC50 [5] [µM] | IC50 [6] [µM] | IC50 [8] [µM] | IC50 [10] [µM] | % of Differentiation ([4]; 1 μM compound) [%] | inhibitor against proliferation of human cancer cell line (human cancer cell line) | % of Differentiation, 1,25-(OH)2D3 [11, 13] [%] | % of Differentiation, all-trans RA [11, 14] [%] | % of Differentiation ([4]; 20 μM compound) [%] | other results
O=C1Nc2ccc(F)cc2C1=C1Nc2ccccc2C1=NO [AGM012, 5′-fluoro-1H,1′H-[2,3′] biindolylidene-3,2′-dione 3-oxime] | 89.3 | 64.2 | 3.41 | 2.06 | 13.2 | 32.71 ± 1.73 | effective inhibitor | 24.29 ± 1.34 | 54.81 ± 1.65 | – | histological appearance of tumor lesion (RK3E-ras solid tumor [1]): necrosis or calcification of tumor is observed; annexin-V green fluorescence staining versus control (RK3E-Ras cells [2]): far more stained by green fluorescence than cells of control group; size and volume of tumor (RK3E-ras solid tumor [7]): decrease; cell viability according to increase of compound concentration (RK3E-Ras cells [9]): rapid decline of cell viability
